Columns and labels:
Guinea Pig = conditions: Oral, VPITAR 33(5)48,74; cited from earlier work
Fusarium culmorum = assay: growth inhibition test on SAB agar, F. culmorum; format: cell-based
Protocol: (§1) The antifungal activity of ethyl trans-cinnamate against a number of different fungi was investigated by means of in a simple growth inhibition test.
(§2) The following quantities of Ethyl trans-Cinnamate were added to Sabourand Dextrose agar (SAB); 50 ml L^-1, 4ml L^-1, 2ml L^-1, 1ml L^-1, 400 µl L^-1, 200 µl L^-1 and 40 µl L^-1. […] These were then autoclaved and poured into standard Petri dishes. […] Duplicate plates of each concentration, plus control plates containing only SAB Agar, where then separately inoculated with, four different species of fungi, these were Aspergillus nidulans, Penicillium digitatum, Rhizopus arrhizus and Fusarium culmorum. Inoculation was carried out using a single stab at the centre of each Petri dish. The plates were then incubated at 30°C for 6 days and daily measurements of mycobial growth where taken every 24 hours.

Rhizopus arrhizus = assay: growth inhibition test on SAB agar, R. arrhizus; format: cell-based
Protocol: as §1, §2

[1] = 50ml L-^1 and higher doses, further experiments, data not shown

## CCOC(=O)/C=C/c1ccccc1 [trans-cinnamic acid ethyl ester]
Guinea Pig
  LDSO: 4000 mg/kg
Fusarium culmorum; 1ml L^-1, Day 1
  Level of Radial Growth (mm) of F. culmorum: 0 mm
Fusarium culmorum; 1ml L^-1, Day 2
  Level of Radial Growth (mm) of F. culmorum: 0 mm
Fusarium culmorum; 1ml L^-1, Day 3
  Level of Radial Growth (mm) of F. culmorum: 0 mm
Fusarium culmorum; 1ml L^-1, Day 4
  Level of Radial Growth (mm) of F. culmorum: 0 mm
Fusarium culmorum; 1ml L^-1, Day 5
  Level of Radial Growth (mm) of F. culmorum: 0 mm
Fusarium culmorum; 1ml L^-1, Day 6
  Level of Radial Growth (mm) of F. culmorum: 0 mm
Fusarium culmorum; 2ml L^-1, Day 1
  Level of Radial Growth (mm) of F. culmorum: 0 mm
Fusarium culmorum; 2ml L^-1, Day 2
  Level of Radial Growth (mm) of F. culmorum: 0 mm
Fusarium culmorum; 2ml L^-1, Day 3
  Level of Radial Growth (mm) of F. culmorum: 0 mm
Fusarium culmorum; 2ml L^-1, Day 4
  Level of Radial Growth (mm) of F. culmorum: 0 mm
Fusarium culmorum; 2ml L^-1, Day 5
  Level of Radial Growth (mm) of F. culmorum: 0 mm
Fusarium culmorum; 2ml L^-1, Day 6
  Level of Radial Growth (mm) of F. culmorum: 0 mm
Fusarium culmorum; 4ml L^-1, Day 1
  Level of Radial Growth (mm) of F. culmorum: 0 mm
Fusarium culmorum; 4ml L^-1, Day 2
  Level of Radial Growth (mm) of F. culmorum: 0 mm
Fusarium culmorum; 4ml L^-1, Day 3
  Level of Radial Growth (mm) of F. culmorum: 0 mm
Fusarium culmorum; 4ml L^-1, Day 4
  Level of Radial Growth (mm) of F. culmorum: 0 mm
Fusarium culmorum; 4ml L^-1, Day 5
  Level of Radial Growth (mm) of F. culmorum: 0 mm
Fusarium culmorum; 4ml L^-1, Day 6
  Level of Radial Growth (mm) of F. culmorum: 0 mm
Fusarium culmorum; 40µl L^-1, Day 1
  Level of Radial Growth (mm) of F. culmorum: 0 mm
Fusarium culmorum; 40µl L^-1, Day 2
  Level of Radial Growth (mm) of F. culmorum: 0 mm
Fusarium culmorum; 40µl L^-1, Day 3
  Level of Radial Growth (mm) of F. culmorum: 1 mm
Fusarium culmorum; 40µl L^-1, Day 4
  Level of Radial Growth (mm) of F. culmorum: 1 mm
Fusarium culmorum; 40µl L^-1, Day 5
  Level of Radial Growth (mm) of F. culmorum: 2 mm
Fusarium culmorum; 40µl L^-1, Day 6
  Level of Radial Growth (mm) of F. culmorum: 6 mm
Fusarium culmorum; [1]
  duration of complete inhibition of growth: at least 8 days
Fusarium culmorum; 50ml L-^1 level
  inhibition of growth: complete inhibition of growth
Fusarium culmorum; 50 ml L^-1, Day 1
  Level of Radial Growth (mm) of F. culmorum: 0 mm
Fusarium culmorum; 50 ml L^-1, Day 2
  Level of Radial Growth (mm) of F. culmorum: 0 mm
Fusarium culmorum; 50 ml L^-1, Day 3
  Level of Radial Growth (mm) of F. culmorum: 0 mm
Fusarium culmorum; 50 ml L^-1, Day 4
  Level of Radial Growth (mm) of F. culmorum: 0 mm
Fusarium culmorum; 50 ml L^-1, Day 5
  Level of Radial Growth (mm) of F. culmorum: 0 mm
Fusarium culmorum; 50 ml L^-1, Day 6
  Level of Radial Growth (mm) of F. culmorum: 0 mm
Fusarium culmorum; 200µl L^-1, Day 1
  Level of Radial Growth (mm) of F. culmorum: 0 mm
Fusarium culmorum; 200µl L^-1, Day 2
  Level of Radial Growth (mm) of F. culmorum: 0 mm
Fusarium culmorum; 200µl L^-1, Day 3
  Level of Radial Growth (mm) of F. culmorum: 0 mm
Fusarium culmorum; 200µl L^-1, Day 4
  Level of Radial Growth (mm) of F. culmorum: 1 mm
Fusarium culmorum; 200µl L^-1, Day 5
  Level of Radial Growth (mm) of F. culmorum: 2 mm
Fusarium culmorum; 200µl L^-1, Day 6
  Level of Radial Growth (mm) of F. culmorum: 6 mm
Fusarium culmorum; 400µl L^-1, Day 1
  Level of Radial Growth (mm) of F. culmorum: 0 mm
Fusarium culmorum; 400µl L^-1, Day 2
  Level of Radial Growth (mm) of F. culmorum: 0 mm
Fusarium culmorum; 400µl L^-1, Day 3
  Level of Radial Growth (mm) of F. culmorum: 0 mm
Fusarium culmorum; 400µl L^-1, Day 4
  Level of Radial Growth (mm) of F. culmorum: 1 mm
Fusarium culmorum; 400µl L^-1, Day 5
  Level of Radial Growth (mm) of F. culmorum: 2 mm
Fusarium culmorum; 400µl L^-1, Day 6
  Level of Radial Growth (mm) of F. culmorum: 6 mm
Rhizopus arrhizus; 1ml L^-1, Day 1
  Level of Radial Growth (mm) of R. arrhizus: 8.5 mm
Rhizopus arrhizus; 1ml L^-1, Day 2
  Level of Radial Growth (mm) of R. arrhizus: 45.0 mm
Rhizopus arrhizus; 1ml L^-1, Day 3
  Level of Radial Growth (mm) of R. arrhizus: 45.0 mm
Rhizopus arrhizus; 1ml L^-1, Day 4
  Level of Radial Growth (mm) of R. arrhizus: 45.0 mm
Rhizopus arrhizus; 1ml L^-1, Day 5
  Level of Radial Growth (mm) of R. arrhizus: 45.0 mm
Rhizopus arrhizus; 1ml L^-1, Day 6
  Level of Radial Growth (mm) of R. arrhizus: 45.0 mm
Rhizopus arrhizus; 2ml L^-1, Day 1
  Level of Radial Growth (mm) of R. arrhizus: 1. mm
Rhizopus arrhizus; 2ml L^-1, Day 2
  Level of Radial Growth (mm) of R. arrhizus: 45.0 mm
Rhizopus arrhizus; 2ml L^-1, Day 3
  Level of Radial Growth (mm) of R. arrhizus: 45.0 mm
Rhizopus arrhizus; 2ml L^-1, Day 4
  Level of Radial Growth (mm) of R. arrhizus: 45.0 mm
Rhizopus arrhizus; 2ml L^-1, Day 5
  Level of Radial Growth (mm) of R. arrhizus: 45.0 mm
Rhizopus arrhizus; 2ml L^-1, Day 6
  Level of Radial Growth (mm) of R. arrhizus: 45.0 mm
Rhizopus arrhizus; 4ml L^-1, Day 1
  Level of Radial Growth (mm) of R. arrhizus: 0 mm
Rhizopus arrhizus; 4ml L^-1, Day 2
  Level of Radial Growth (mm) of R. arrhizus: 23.5 mm
Rhizopus arrhizus; 4ml L^-1, Day 3
  Level of Radial Growth (mm) of R. arrhizus: 45.0 mm
Rhizopus arrhizus; 4ml L^-1, Day 4
  Level of Radial Growth (mm) of R. arrhizus: 45.0 mm
Rhizopus arrhizus; 4ml L^-1, Day 5
  Level of Radial Growth (mm) of R. arrhizus: 45.0 mm
Rhizopus arrhizus; 4ml L^-1, Day 6
  Level of Radial Growth (mm) of R. arrhizus: 45.0 mm
Rhizopus arrhizus; 40µl L^-1, Day 1
  Level of Radial Growth (mm) of R. arrhizus: 26.0 mm
Rhizopus arrhizus; 40µl L^-1, Day 2
  Level of Radial Growth (mm) of R. arrhizus: 45.0 mm
Rhizopus arrhizus; 40µl L^-1, Day 3
  Level of Radial Growth (mm) of R. arrhizus: 45.0 mm
Rhizopus arrhizus; 40µl L^-1, Day 4
  Level of Radial Growth (mm) of R. arrhizus: 45.0 mm
Rhizopus arrhizus; 40µl L^-1, Day 5
  Level of Radial Growth (mm) of R. arrhizus: 45.0 mm
Rhizopus arrhizus; 40µl L^-1, Day 6
  Level of Radial Growth (mm) of R. arrhizus: 45.0 mm
Rhizopus arrhizus; [1]
  duration of complete inhibition of growth: at least 8 days
Rhizopus arrhizus; 50ml L-^1 level
  inhibition of growth: complete inhibition of growth
Rhizopus arrhizus; 50 ml L^-1, Day 1
  Level of Radial Growth (mm) of R. arrhizus: 0 mm
Rhizopus arrhizus; 50 ml L^-1, Day 2
  Level of Radial Growth (mm) of R. arrhizus: 0 mm
Rhizopus arrhizus; 50 ml L^-1, Day 3
  Level of Radial Growth (mm) of R. arrhizus: 0 mm
Rhizopus arrhizus; 50 ml L^-1, Day 4
  Level of Radial Growth (mm) of R. arrhizus: 0 mm
Rhizopus arrhizus; 50 ml L^-1, Day 5
  Level of Radial Growth (mm) of R. arrhizus: 0 mm
Rhizopus arrhizus; 50 ml L^-1, Day 6
  Level of Radial Growth (mm) of R. arrhizus: 0 mm
Rhizopus arrhizus; 200µl L^-1, Day 1
  Level of Radial Growth (mm) of R. arrhizus: 18.0 mm
Rhizopus arrhizus; 200µl L^-1, Day 2
  Level of Radial Growth (mm) of R. arrhizus: 45.0 mm
Rhizopus arrhizus; 200µl L^-1, Day 3
  Level of Radial Growth (mm) of R. arrhizus: 45.0 mm
Rhizopus arrhizus; 200µl L^-1, Day 4
  Level of Radial Growth (mm) of R. arrhizus: 45.0 mm
Rhizopus arrhizus; 200µl L^-1, Day 5
  Level of Radial Growth (mm) of R. arrhizus: 45.0 mm
Rhizopus arrhizus; 200µl L^-1, Day 6
  Level of Radial Growth (mm) of R. arrhizus: 45.0 mm
Rhizopus arrhizus; 400µl L^-1, Day 1
  Level of Radial Growth (mm) of R. arrhizus: 14.5 mm
Rhizopus arrhizus; 400µl L^-1, Day 2
  Level of Radial Growth (mm) of R. arrhizus: 45.0 mm
Rhizopus arrhizus; 400µl L^-1, Day 3
  Level of Radial Growth (mm) of R. arrhizus: 45.0 mm
Rhizopus arrhizus; 400µl L^-1, Day 4
  Level of Radial Growth (mm) of R. arrhizus: 45.0 mm
Rhizopus arrhizus; 400µl L^-1, Day 5
  Level of Radial Growth (mm) of R. arrhizus: 45.0 mm
Rhizopus arrhizus; 400µl L^-1, Day 6
  Level of Radial Growth (mm) of R. arrhizus: 45.0 mm

— patent EP1206258B1, “COMPOSITIONS CONTAINING ESTERS FOR TREATING PARASITIC INFESTATIONS OF ORGANISMS” (priority 1999, dated 2001)
